How the values were obtained:
[1] = tested on: FU-OV-1 (Ovarian Carcinoma); test: Bliss excess, mean over the matrix (fraction); higher = more synergy
Method in brief: (§1)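 Cell lines in DMEM/F12 or RPMI with 10% FBS were plated in 1536-well plates, held 24 hours at 37°C, 5% CO2, then given two-drug dose matrices for 72 hours (DMSO typically 0.2%). Viability was read by CellTiter-Glo 2.0 luminescence and scaled as inhibition from 0 (vehicle wells) to 1 (blank wells). Combination Emax is the second-highest inhibition in the matrix; Bliss excess is observed combination effect minus expected EA + EB − EA·EB, EA and EB being single-agent effects.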

[2] = tested on: TC-YIK (Other Solid Carcinomas); test: as above
Method in brief: as §1

[3] = tested on: D-283MED (Other Solid Carcinomas); test: combination Emax (second highest fraction inhibited in the dose matrix, 72 h); higher = more inhibition; extreme values may be limits of the assay
Method in brief: as §1

[4] = tested on: EFM-192A (Breast Carcinoma); test: as above
Method in brief: as §1

[5] = tested on: FU-OV-1 (Ovarian Carcinoma); test: as above
Method in brief: as §1

[6] = tested on: GDM-1 (Acute Myeloid Leukemia); test: as above
Method in brief: as §1

[7] = tested on: HCC-827 (Lung Adenocarcinoma); test: as above
Method in brief: as §1

[8] = tested on: HCC1143 (Breast Carcinoma); test: as above
Method in brief: as §1

[9] = tested on: HOP-92 (Non-Small Cell Lung Carcinoma); test: as above
Method in brief: as §1

[10] = tested on: KG-1 (Acute Myeloid Leukemia); test: as above
Method in brief: as §1

[11] = tested on: NCI-H1688 (Small Cell Lung Carcinoma); test: as above
Method in brief: as §1

[12] = tested on: P31-FUJ (Acute Myeloid Leukemia); test: as above
Method in brief: as §1

[13] = tested on: RCC10RGB (Kidney Carcinoma); test: as above
Method in brief: as §1

[14] = tested on: SK-LMS-1 (Other Solid Carcinomas); test: as above
Method in brief: as §1

[15] = tested on: TC-YIK (Other Solid Carcinomas); test: as above
Method in brief: as §1

[16] = tested on: U-118-MG (Low Grade Glioma); test: as above
Method in brief: as §1
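Wherever Bliss excess, mean over the matrix is given: after 72 h of two-drug dosing.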

| Structure (SMILES) | Bliss excess [1] | Bliss excess [2] | combination Emax [3] | combination Emax [4] | combination Emax [5] | combination Emax [6] | combination Emax [7] | combination Emax [8] | combination Emax [9] | combination Emax [10] | combination Emax [11] | combination Emax [12] | combination Emax [13] | combination Emax [14] | combination Emax [15] | combination Emax [16] |
| --- | --- | --- | --- | --- | --- | --- | --- | --- | --- | --- | --- | --- | --- | --- | --- | --- |
| Cn1cnc2c(F)c(Nc3ccc(Br)cc3Cl)c(C(=O)NOCCO)cc21 [Selumetinib] + CC(C)n1c(=O)n(C)c2cnc3cc(F)c(-c4ccc(OCCCN5CCCCC5)nc4)cc3c21 [AZD1390] (first compound max 10 µM, 7x7, partner max 0.3 µM) | -0.0109 | 0.0473 | 0.148 | 0.103 | 0.431 | 0.165 | 0.195 | 0.297 | 0.402 | 0.307 | 0.223 | 0.555 | 0.437 | 0.264 | 0.466 | 0.178 |
| CC(=O)c1c(C)c2cnc(Nc3ccc(N4CCNCC4)cn3)nc2n(C2CCCC2)c1=O [Palbociclib] + Cn1cnc2c(F)c(Nc3ccc(Br)cc3Cl)c(C(=O)NOCCO)cc21 [Selumetinib] (first compound max 10 µM, 7x7, partner max 10 µM) | 0.0004 | 0.001 | 0.582 | 0.169 | 0.4 | 0.555 | 0.22 | 0.295 | 0.458 | 0.481 | 0.147 | 0.475 | 0.547 | 0.437 | 0.729 | 0.296 |
| Cn1cnc2c(F)c(Nc3ccc(Br)cc3Cl)c(C(=O)NOCCO)cc21 [Selumetinib] + C=CCn1c(=O)c2cnc(Nc3ccc(N4CCN(C)CC4)cc3)nc2n1-c1cccc(C(C)(C)O)n1 [AZD1775] (first compound max 10 µM, partner max 1 µM) | -0.015 | -0.03 | 0.956 | 0.248 | 0.47 | 0.898 | 0.377 | 0.528 | 0.503 | 0.587 | 0.525 | 0.935 | 0.591 | 0.599 | 0.826 | 0.327 |
| NC1(C(=O)N[C@@H](CCO)c2ccc(Cl)cc2)CCN(c2ncnc3[nH]ccc23)CC1 [Capivasertib] + CC(C)n1c(=O)n(C)c2cnc3cc(F)c(-c4ccc(OCCCN5CCCCC5)nc4)cc3c21 [AZD1390] (first compound max 10 µM, 7x7, partner max 0.3 µM) | -0.0541 | -0.0346 | 0.475 | 0.402 | 0.253 | 0.401 | 0.322 | 0.174 | 0.376 | 0.241 | 0.296 | 0.645 | 0.2 | 0.324 | 0.17 | 0.47 |
| C[C@@H](c1ccc2nccn2c1)n1nnc2ncc(-c3cnn(C)c3)nc21 [Savolitinib] + CC1(C)CCC(CN2CCN(c3ccc(C(=O)NS(=O)(=O)c4ccc(NCC5CCOCC5)c([N+](=O)[O-])c4)c(Oc4cnc5[nH]ccc5c4)c3)CC2)=C(c2ccc(Cl)cc2)C1 [Venetoclax] (first compound max 1 µM, 7x7, partner max 1 µM) | -0.0389 | -0.0506 | 0.126 | 0.174 | 0.2 | 0.515 | 0.266 | 0.29 | 0.201 | 0.38 | 0.239 | 0.372 | 0.195 | 0.223 | 0.108 | 0.218 |
| CC(=O)c1c(C)c2cnc(Nc3ccc(N4CCNCC4)cn3)nc2n(C2CCCC2)c1=O [Palbociclib] + Cc1c2c(nn1C)CSCc1cc(n(C)n1)CSc1cc(c3ccccc3c1)OCCCc1c(C(=O)O)n(C)c3c-2c(Cl)ccc13 [AZD5991] (first compound max 10 µM, 7x7, partner max 1 µM) | -0.0538 | -0.0144 | 0.797 | 0.436 | 0.235 | 0.824 | 0.197 | 0.287 | 0.293 | 0.894 | 0.381 | 0.907 | 0.419 | 0.282 | 0.547 | 0.322 |
| NC1(C(=O)N[C@@H](CCO)c2ccc(Cl)cc2)CCN(c2ncnc3[nH]ccc23)CC1 [Capivasertib] + C[C@@H]1COCCN1C2=NC(=NC(=C2)C3(CC3)[S@](=N)(=O)C)C4=C5C=CNC5=NC=C4 [AZD6738] (first compound max 10 µM, 7x7, partner max 10 µM) | -0.0313 | 0.0091 | 0.975 | 0.581 | 0.35 | 0.734 | 0.576 | 0.725 | 0.541 | 0.739 | 0.445 | 0.971 | 0.469 | 0.566 | 0.901 | 0.685 |

Source: the supplement of paper PMC11061612
